Experimental data: article PMC5650142, “GPR40 partial agonists and AgoPAMs: Differentiating effects on glucose and hormonal secretions in the rodent” (PLoS ONE, 2017)
Where “and” joins values, the source holds several entries; their conditions need not be identical. Identical values can stand only once. Like-named read-outs stand apart in the source and are kept apart here.

Legend:
[1] = test system: GK rats; assay: GK rat acute efficacy (glucose, insulin, glucagon after single dose); assay type: in vivo; details: 10 mpk
Summary of the method: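 Food removed ~1 hr after lights on; rats grouped by ambient glucose, each compound given at its maximal effective dose. Glucose, insulin and glucagon measured at 1, 2, 4 and 24 hrs post dose; plasma in K2EDTA with DPP4 and protease inhibitors, insulin by EIA, glucagon by in-house MSD sandwich immunoassay.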

[2] = test system: pancreatic islets from wild type and GPR40−/− mice; assay: Isolated pancreatic islets static GDIS assay (insulin, glucagon secretion); assay type: cell-based, mouse; set-up: Islet insulin / Islet insulin, mean: unit not given here; details: for glucagon secretion from islets: ex vivo; for Islet Glucagon / Islet insulin: individual replicates; for Islet Glucagon, mean / Islet insulin, mean: mean of replicates
Method: Pancreatic islets of Langerhans were isolated from wild type and GPR40^−/− mice (littermates) by collagenase digestion and discontinuous Ficoll gradient separation. […] Insulin secretion was determined by a 1-h static incubation in Krebs-Ringer bicarbonate (KRB) buffer in a 96-well format as previously described. […] The buffer was removed from the wells at the end of the incubation and assayed for insulin levels using the Insulin ELISA kit (ALPCO, Salem, NH) and glucagon level using glucagon ELISA kit (ALPCO, Salem, NH).

[3] = molecular target: human GPR40 (Homo sapiens, UniProt O14842); assay: GPR40 binding assay, AgoPAM tracer [3H]25 ([3H]AP9); set-up: expressed in transfected cells; host or cells: CHO / CHO-K1 cells, membrane preparation;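 for % Bound Normalized to 100: 100% bound is tracer binding in DMSO-only wells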;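 for %Bound: 100% bound is tracer binding in DMSO-only wells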
Summary of the method: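 Affinity at two allosterically coupled GPR40 sites was probed by displacement or enhancement of radiotracer: the partial agonist [3H]L358 and the AgoPAM [3H]25. Human GPR40 CHO-cell membranes (5 μg/well) on WGA SPA beads were incubated with compound and tracer at room temperature, then counted. Outputs: IC50 and maximal % bound.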

[4] = radioligand L-005306257, dose 0.318285 nM
[5] = radioligand L-005306257, dose 1.00578 nM
[6] = radioligand L-005306257, dose 3.17827 nM
[7] = radioligand L-005306257, dose 10.0433 nM
[8] = radioligand L-005306257, dose 31.7369 nM
[9] = radioligand L-005306257, dose 100.289 nM
[10] = radioligand L-005306257, dose 316.912 nM
[11] = radioligand L-005306257, dose 1001.44 nM
[12] = radioligand L-005306257, dose 3164.56 nM
[13] = radioligand L-005306257, dose 10000 nM

human GPR40, sequence (O14842 whole entry): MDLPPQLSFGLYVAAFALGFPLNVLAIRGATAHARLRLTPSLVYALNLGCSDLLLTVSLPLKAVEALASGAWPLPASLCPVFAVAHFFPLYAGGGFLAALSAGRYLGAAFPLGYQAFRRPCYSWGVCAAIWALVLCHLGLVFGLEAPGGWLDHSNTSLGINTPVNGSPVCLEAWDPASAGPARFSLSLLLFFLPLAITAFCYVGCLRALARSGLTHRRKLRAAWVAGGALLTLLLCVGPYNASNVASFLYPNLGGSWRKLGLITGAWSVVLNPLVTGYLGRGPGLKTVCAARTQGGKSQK

C[C@H](C(=O)O)[C@H](c1ccc2c(c1)O[C@H](C1CN(Cc3cc(C(F)(F)F)ccc3C(F)(F)F)C1)CC2)C1CC1 [AP3]
Plasma Glucagon Over Time (Fig 2C) ([1]; time 0, individual animals): 19.5235 pg/mL and 95.1724 pg/mL and 78.4069 pg/mL and 68.928 pg/mL and 101.768 pg/mL and 68.1132 pg/mL and 64.8322 pg/mL and 90.2934 pg/mL
Plasma Insulin Over Time (Fig 2B) ([1]; time 0, individual animals): 1.335 ng/mL and 3.288 ng/mL and 2.57 ng/mL and 2.616 ng/mL and 1.578 ng/mL and 2.696 ng/mL and 1.845 ng/mL and 1.5169 ng/mL
Plasma Glucagon Over Time (Fig 2C) ([1]; time 1, individual animals): 91.082 pg/mL and 337.393 pg/mL and 327.979 pg/mL and 373.532 pg/mL and 338.805 pg/mL and 110.666 pg/mL and 312.795 pg/mL and 175.651 pg/mL
Plasma Insulin Over Time (Fig 2B) ([1]; time 1, individual animals): 7.035 ng/mL and 11.786 ng/mL and 10.5354 ng/mL and 9.1461 ng/mL and 4.564 ng/mL and 7.402 ng/mL and 7.0553 ng/mL and 5.184 ng/mL
Plasma Glucagon Over Time (Fig 2C) ([1]; time 2, individual animals): 309.053 pg/mL and 291.695 pg/mL and 285.862 pg/mL and 322.143 pg/mL and 116.312 pg/mL and 40.1476 pg/mL and 259.365 pg/mL and 215.877 pg/mL
Plasma Insulin Over Time (Fig 2B) ([1]; time 2, individual animals): 3.782 ng/mL and 3.3115 ng/mL and 3.493 ng/mL and 3.854 ng/mL and 1.215 ng/mL and 0.8625 ng/mL and 2.2798 ng/mL and 2.163 ng/mL
Plasma Glucagon Over Time (Fig 2C) ([1]; time 4, individual animals): 120.787 pg/mL and 261.082 pg/mL and 116.805 pg/mL and 218.976 pg/mL and 231.061 pg/mL and 206.193 pg/mL and 151.031 pg/mL and 315.618 pg/mL
Plasma Insulin Over Time (Fig 2B) ([1]; time 4, individual animals): 3.033 ng/mL and 3.537 ng/mL and 3.038 ng/mL and 2.421 ng/mL and 1.582 ng/mL and 1.483 ng/mL and 2.06 ng/mL and 1.86 ng/mL
Plasma Glucagon Over Time (Fig 2C) ([1]; time 24, individual animals): 114.227 pg/mL and 80.8254 pg/mL and 201.451 pg/mL and 177.87 pg/mL and 103.778 pg/mL and 114.567 pg/mL and 171.755 pg/mL and 119.088 pg/mL
Plasma Insulin Over Time (Fig 2B) ([1]; time 24, individual animals): 1.556 ng/mL and 1.426 ng/mL and 1.797 ng/mL and 1.415 ng/mL and 0.6908 ng/mL and 1.576 ng/mL and 1.455 ng/mL and 1.848 ng/mL
glucagon secretion from islets ([2]; GPR40-/- mouse islets): abolished
Islet Glucagon ([2]; KO mouse islets, G2, 1uM): 25.089 pg/ml/ islet and 11.858 pg/ml/ islet and 9.721 pg/ml/ islet and 3.205 pg/ml/ islet and 12.4 pg/ml/ islet and 14.931 pg/ml/ islet and 18.163 pg/ml/ islet and 18.456 pg/ml/ islet and 21.346 pg/ml/ islet and 15.13 pg/ml/ islet
Islet insulin ([2]; KO mouse islets, G2, 1uM): 0.293 and 0.272 and 0.213 and 0.106 and 0.37 and 0.44 and 0.27 and 0.128 and 1.077 and 0.675
Islet Glucagon, mean ([2]; KO mouse islets, G2, 1uM): 15.0299 pg/ml/ islet
Islet insulin, mean ([2]; KO mouse islets, G2, 1uM): 0.3844
Islet Glucagon ([2]; KO mouse islets, G16, 1uM): 4.043 pg/ml/ islet and 5.474 pg/ml/ islet and 8.717 pg/ml/ islet and 11.984 pg/ml/ islet and 16.06 pg/ml/ islet and 18.271 pg/ml/ islet and 3.382 pg/ml/ islet and 7.691 pg/ml/ islet and 7.902 pg/ml/ islet and 2.338 pg/ml/ islet
Islet insulin ([2]; KO mouse islets, G16, 1uM): 5.28 and 3.491 and 4.033 and 2.378 and 3.966 and 1.757 and 3.131 and 3.522 and 3.781 and 3.035
Islet Glucagon, mean ([2]; KO mouse islets, G16, 1uM): 8.5862 pg/ml/ islet
Islet insulin, mean ([2]; KO mouse islets, G16, 1uM): 3.4374
Islet Glucagon ([2]; WT mouse islets, G2, 1uM): 38.183 pg/ml/ islet and 99.219 pg/ml/ islet and 47.629 pg/ml/ islet and 35.059 pg/ml/ islet and 41.718 pg/ml/ islet and 44.978 pg/ml/ islet and 113.083 pg/ml/ islet and 70.443 pg/ml/ islet and 44.123 pg/ml/ islet and 60.974 pg/ml/ islet
Islet insulin ([2]; WT mouse islets, G2, 1uM, listed as L-005427846): 1.34 and 1.9735 and 0.61 and 0.65 and 0.79 and 1.22 and 0.9145 and 1.416 and 1.5465 and 1.2555
Islet Glucagon, mean ([2]; WT mouse islets, G2, 1uM): 59.5409 pg/ml/ islet
Islet insulin, mean ([2]; WT mouse islets, G2, 1uM): 1.1716
Islet Glucagon ([2]; WT mouse islets, G16, 1uM): 19.839 pg/ml/ islet and 16.487 pg/ml/ islet and 37.465 pg/ml/ islet and 8.951 pg/ml/ islet and 23.354 pg/ml/ islet and 22.21 pg/ml/ islet and 33.167 pg/ml/ islet and 31.559 pg/ml/ islet and 48.792 pg/ml/ islet
Islet insulin ([2]; WT mouse islets, G16, 1uM, listed as L-005427846): 11.936 and 11.639 and 13.085 and 12.097 and 12.133 and 11.613 and 12.28 and 12.692 and 11.465 and 12.253
Islet Glucagon, mean ([2]; WT mouse islets, G16, 1uM): 26.8693 pg/ml/ islet
Islet insulin, mean ([2]; WT mouse islets, G16, 1uM): 12.1193
glucagon secretion from islets ([2]; WT mouse islets): significantly elevated
Binding Results, % in parentheses, [^3H]AP9 ([3]; WT human GPR40, maximal % (not defined)): (101%)
IC50 ([3]; WT human GPR40, n = 2–13, read-out: Binding Results [IC50, nM], [^3H]AP9): 5.9 ± 5.2 nM
binding of [^3H]25 ([3]; human GPR40 membranes, competition binding): displace
%Act, HUMAN GPR40, Binding Data ([3]; individual determinations, AgoPAM tracer (per Table 2)): 102% and 101%
IC50 ([3]; individual determinations, AgoPAM tracer (per Table 2), read-out: IC50 (nM), HUMAN GPR40, Binding Data): 2.18 nM and 9.53 nM
% Bound Normalized to 100 [3, 4]: 96.23%
%Bound [3, 4]: 90.33%
inhibition at 0.000318285 µM [3, 4]: 6.84%
% Bound Normalized to 100 [3, 5]: 76.57%
%Bound [3, 5]: 70.67%
inhibition at 0.00100578 µM [3, 5]: 10.2%
% Bound Normalized to 100 [3, 6]: 49.04%
%Bound [3, 6]: 43.15%
inhibition at 0.00317827 µM [3, 6]: 27.8%
% Bound Normalized to 100 [3, 7]: 29.38%
%Bound [3, 7]: 23.49%
inhibition at 0.0100433 µM [3, 7]: 52.8%
% Bound Normalized to 100 [3, 8]: 11.81%
%Bound [3, 8]: 5.92%
inhibition at 0.0317369 µM [3, 8]: 84.3%
% Bound Normalized to 100 [3, 9]: 9.60%
%Bound [3, 9]: 3.71%
inhibition at 0.100289 µM [3, 9]: 92.8%
% Bound Normalized to 100 [3, 10]: 4.07%
%Bound [3, 10]: -1.82%
inhibition at 0.316912 µM [3, 10]: 100%
% Bound Normalized to 100 [3, 11]: 2.48%
%Bound [3, 11]: -3.42%
inhibition at 1.00144 µM [3, 11]: 102%
% Bound Normalized to 100 [3, 12]: 6.29%
%Bound [3, 12]: 0.39%
inhibition at 3.16456 µM [3, 12]: 99.9%
% Bound Normalized to 100 [3, 13]: 6.04%
%Bound [3, 13]: 0.15%
inhibition at 10 µM [3, 13]: 101%
